What was measured:
Type in all cases: in vivo
[1] = tested on: redroot pigweed (Amaranthus retroflexus, AMARE); assay: Pre-emerge test, greenhouse herbicide activity screening; details: rating scale 0-100, 14 days after application
Procedure, shortened: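 Plants grown in 10 cm pots of sandy loam mix received acetone-dissolved compounds through a moving flat-fan nozzle. Doses ranged from 15 to 1000 g ai/ha. Pre-emerge pots were seeded one day earlier, post-emerge pots 8–21 days earlier. Fourteen days on, each pot was graded 0–100 for damage.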

[2] = tested on: barnyardgrass (Echinochloa crus-galli, ECHCG); assay: as above; details: rating scale 0-100, 14 days after application
Procedure, shortened: (§1)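 Visual ratings on a 0-100 scale (0 no damage, 100 all plants dead) were taken at 14 days after treatment. Rates of 15-1000 g ai/ha in acetone, 187 l/ha, were sprayed onto soil one day after planting (pre-emerge) or onto 2-3 leaf plants with 0.25% v/v surfactant (post-emerge).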

[3] = tested on: green foxtail (Setaria viridis, SETVI); assay: as above; details: rating scale 0-100, 14 days after application
Procedure, shortened: as §1

[4] = tested on: ivyleaf morningglory (Ipomoea hederacea, IPOHE); assay: as above; details: rating scale 0-100, 14 days after application
Procedure, shortened: as §1

[5] = tested on: johnsongrass (Sorghum halepense, SORHA); assay: as above; details: rating scale 0-100, 14 days after application
Procedure, shortened: as §1

[6] = tested on: lambsquarters (Chenopodium album, CHEAL); assay: as above; details: rating scale 0-100, 14 days after application
Procedure, shortened: as §1

[7] = tested on: large crabgrass (Digitaria sanguinalis, DIGSA); assay: as above; details: rating scale 0-100, 14 days after application
Procedure, shortened: as §1

[8] = tested on: sicklepod (Cassia obtusifolia, CASOB); assay: as above; details: rating scale 0-100, 14 days after application
Procedure, shortened: as §1

[9] = tested on: velvetleaf (Abutilon theophrasti, ABUTH); assay: as above; details: rating scale 0-100, 14 days after application
Procedure, shortened: as §1

[10] = tested on: field corn (Zea mays L., var. Dekalb 535, CORN); assay: Pre-emerge test, crop safety; details: rating scale 0-100, 14 days after application
Procedure, shortened: (§2)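 Fourteen days after spraying, crop and weed injury was graded visually from 0, no effect, to 100, every plant dead. Test substances were dissolved in acetone and applied at 15–1000 g ai/ha with a flat-fan nozzle. Application was either pre-emergence, one day after sowing, or post-emergence at the 2–3 leaf stage.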

[11] = tested on: upland rice (Oryza sp., var. Tebonnet, RICE); assay: Pre-emerge test, crop safety; details: rating scale 0-100, 14 days after application
Procedure, shortened: as §2

[12] = tested on: barnyardgrass (Echinochloa crus-galli, ECHCG); assay: Post-emerge test, greenhouse herbicide activity screening; details: rating scale 0-100 (0 no damage, 100 complete death), 14 days after application
Procedure, shortened: (§3)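 Compounds in acetone were track-sprayed at 187 l/ha, 15–1000 g ai/ha, onto sandy loam pots. Pre-emerge seeds were sown one day before spraying, with surface watering afterwards. Post-emerge plants were at the 2–3 leaf stage and sprayed with 0.25% v/v non-ionic surfactant. Injury was rated 0–100 at 14 days.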

[13] = tested on: common ragweed (Ambrosia artemisizfolia L., AMBEL); assay: as above; details: rating scale 0-100 (0 no damage, 100 complete death), 14 days after application
Procedure, shortened: as §3

[14] = tested on: green foxtail (Setaria viridis, SETVI); assay: as above; details: rating scale 0-100 (0 no damage, 100 complete death), 14 days after application
Procedure, shortened: as §3

[15] = tested on: ivyleaf morningglory (Ipomoea hederacea, IPOHE); assay: as above; details: rating scale 0-100 (0 no damage, 100 complete death), 14 days after application
Procedure, shortened: as §3

[16] = tested on: johnsongrass (Sorghum halepense, SORHA); assay: as above; details: rating scale 0-100 (0 no damage, 100 complete death), 14 days after application
Procedure, shortened: as §3

[17] = tested on: lambsquarters (Chenopodium album, CHEAL); assay: as above; details: rating scale 0-100 (0 no damage, 100 complete death), 14 days after application
Procedure, shortened: as §3

[18] = tested on: large crabgrass (Digitaria sanguinalis, DIGSA); assay: as above; details: rating scale 0-100 (0 no damage, 100 complete death), 14 days after application
Procedure, shortened: as §3

[19] = tested on: redroot pigweed (Amaranthus retroflexus, AMARE); assay: as above; details: rating scale 0-100 (0 no damage, 100 complete death), 14 days after application
Procedure, shortened: as §3

[20] = tested on: sicklepod (Cassia obtusifolia, CASOB); assay: as above; details: rating scale 0-100 (0 no damage, 100 complete death), 14 days after application
Procedure, shortened: as §3

[21] = tested on: velvetleaf (Abutilon theophrasti, ABUTH); assay: as above; details: rating scale 0-100 (0 no damage, 100 complete death), 14 days after application
Procedure, shortened: as §3

[22] = tested on: field corn (Zea mays L., var. Dekalb 535, CORN); assay: Post-emerge test, crop safety; details: rating scale 0-100 (0 no damage, 100 complete death), 14 days after application
Procedure, shortened: as §1

[23] = tested on: upland rice (Oryza sp., var. Tebonnet, RICE); assay: Post-emerge test, crop safety; details: rating scale 0-100 (0 no damage, 100 complete death), 14 days after application
Procedure, shortened: as §1

How did the “Pre-emerge herbicidal activity, phytotoxicity rating AMARE” value ([1]; 63 g ai/ha) turn out when `COc1c(Cl)cc(F)c(-n2c(=O)cc(C(F)(F)F)n(C)c2=O)c1CC(Cl)C(=O)OCC(C)C` (single isomer, unassigned) [14-14] was run?
The value was 100.

And the “Pre-emerge herbicidal activity, phytotoxicity rating AMARE” value ([1]; 250 g ai/ha)?
Its value is 100.

And the “Pre-emerge herbicidal activity, phytotoxicity rating ECHCG” value ([2]; 63 g ai/ha)?
Its value is 0.

What about the “Pre-emerge herbicidal activity, phytotoxicity rating ECHCG” value ([2]; 250 g ai/ha) of the same compound?
The value was 10.

What about the “Pre-emerge herbicidal activity, phytotoxicity rating SETVI” value ([3]; 63 g ai/ha) of the same compound?
The value was 0.

And the “Pre-emerge herbicidal activity, phytotoxicity rating SETVI” value ([3]; 250 g ai/ha)?
The value was 50.

What about the “Pre-emerge herbicidal activity, phytotoxicity rating IPOHE” value ([4]; 63 g ai/ha) of the same compound?
Its value is 0.

What about the “Pre-emerge herbicidal activity, phytotoxicity rating IPOHE” value ([4]; 250 g ai/ha) of the same compound?
The value was 20.

What about the “Pre-emerge herbicidal activity, phytotoxicity rating SORHA” value ([5]; 63 g ai/ha) of the same compound?
Its value is 0.

And the “Pre-emerge herbicidal activity, phytotoxicity rating SORHA” value ([5]; 250 g ai/ha)?
Its value is 0.

What about the “Pre-emerge herbicidal activity, phytotoxicity rating CHEAL” value ([6]; 63 g ai/ha) of the same compound?
Its value is 60.

And the “Pre-emerge herbicidal activity, phytotoxicity rating CHEAL” value ([6]; 250 g ai/ha)?
The value was 100.

And the “Pre-emerge herbicidal activity, phytotoxicity rating DIGSA” value ([7]; 63 g ai/ha)?
The value was 50.

What about the “Pre-emerge herbicidal activity, phytotoxicity rating DIGSA” value ([7]; 250 g ai/ha) of the same compound?
Its value is 90.

What about the “Pre-emerge herbicidal activity, phytotoxicity rating CASOB” value ([8]; 63 g ai/ha) of the same compound?
The value was 0.

What about the “Pre-emerge herbicidal activity, phytotoxicity rating CASOB” value ([8]; 250 g ai/ha) of the same compound?
Its value is 0.

What about the “Pre-emerge herbicidal activity, phytotoxicity rating ABUTH” value ([9]; 63 g ai/ha) of the same compound?
The value was 0.

And the “Pre-emerge herbicidal activity, phytotoxicity rating ABUTH” value ([9]; 250 g ai/ha)?
The value was 20.

What about the “Pre-emerge phytotoxicity rating, crop damage CORN” value ([10]; 63 g ai/ha) of the same compound?
The value was 0.

What about the “Pre-emerge phytotoxicity rating, crop damage CORN” value ([10]; 250 g ai/ha) of the same compound?
Its value is 0.

What about the “Pre-emerge phytotoxicity rating, crop damage RICE” value ([11]; 63 g ai/ha) of the same compound?
The value was 0.

What about the “Pre-emerge phytotoxicity rating, crop damage RICE” value ([11]; 250 g ai/ha) of the same compound?
The value was 20.

And the “Post-emerge Herbicidal Activity, phytotoxicity rating ECHCG” value ([12]; Rate 63 g ai/ha)?
Its value is 100.

What about the “Post-emerge Herbicidal Activity, phytotoxicity rating ECHCG” value ([12]; Rate 250 g ai/ha) of the same compound?
The value was 100.

And the “Post-emerge Herbicidal Activity, phytotoxicity rating AMBEL” value ([13]; Rate 63 g ai/ha)?
Its value is 70.

And the “Post-emerge Herbicidal Activity, phytotoxicity rating AMBEL” value ([13]; Rate 250 g ai/ha)?
Its value is 70.

What about the “Post-emerge Herbicidal Activity, phytotoxicity rating SETVI” value ([14]; Rate 63 g ai/ha) of the same compound?
Its value is 50.

What about the “Post-emerge Herbicidal Activity, phytotoxicity rating SETVI” value ([14]; Rate 250 g ai/ha) of the same compound?
The value was 70.

What about the “Post-emerge Herbicidal Activity, phytotoxicity rating IPOHE” value ([15]; Rate 63 g ai/ha) of the same compound?
Its value is 30.

And the “Post-emerge Herbicidal Activity, phytotoxicity rating IPOHE” value ([15]; Rate 250 g ai/ha)?
The value was 50.

And the “Post-emerge Herbicidal Activity, phytotoxicity rating SORHA” value ([16]; Rate 63 g ai/ha)?
Its value is 0.

And the “Post-emerge Herbicidal Activity, phytotoxicity rating SORHA” value ([16]; Rate 250 g ai/ha)?
The value was 20.

What about the “Post-emerge Herbicidal Activity, phytotoxicity rating CHEAL” value ([17]; Rate 63 g ai/ha) of the same compound?
The value was 50.

And the “Post-emerge Herbicidal Activity, phytotoxicity rating CHEAL” value ([17]; Rate 250 g ai/ha)?
The value was 90.

What about the “Post-emerge Herbicidal Activity, phytotoxicity rating DIGSA” value ([18]; Rate 63 g ai/ha) of the same compound?
Its value is 90.

And the “Post-emerge Herbicidal Activity, phytotoxicity rating DIGSA” value ([18]; Rate 250 g ai/ha)?
Its value is 100.

What about the “Post-emerge Herbicidal Activity, phytotoxicity rating AMARE” value ([19]; Rate 63 g ai/ha) of the same compound?
Its value is 50.

What about the “Post-emerge Herbicidal Activity, phytotoxicity rating AMARE” value ([19]; Rate 250 g ai/ha) of the same compound?
Its value is 100.

And the “Post-emerge Herbicidal Activity, phytotoxicity rating CASOB” value ([20]; Rate 63 g ai/ha)?
The value was 0.

And the “Post-emerge Herbicidal Activity, phytotoxicity rating CASOB” value ([20]; Rate 250 g ai/ha)?
Its value is 60.

And the “Post-emerge Herbicidal Activity, phytotoxicity rating ABUTH” value ([21]; Rate 63 g ai/ha)?
Its value is 50.

What about the “Post-emerge Herbicidal Activity, phytotoxicity rating ABUTH” value ([21]; Rate 250 g ai/ha) of the same compound?
The value was 100.

What about the “Post-emerge phytotoxicity rating CORN (crop damage)” value ([22]; Rate 63 g ai/ha) of the same compound?
Its value is 10.

And the “Post-emerge phytotoxicity rating CORN (crop damage)” value ([22]; Rate 250 g ai/ha)?
Its value is 50.

What about the “Post-emerge phytotoxicity rating RICE (crop damage)” value ([23]; Rate 63 g ai/ha) of the same compound?
Its value is 0.

What about the “Post-emerge phytotoxicity rating RICE (crop damage)” value ([23]; Rate 250 g ai/ha) of the same compound?
The value was 30.

Source: patent US6355799B1, “Substituted benzene compounds, process for their preparation, and herbicidal and defoliant compositions containing them” (ISK Americas Incorporated, priority 1997, dated 2002)
